According to patent US11040036B2, “Pyruvate kinase activators for use in treating blood disorders” (Agios Pharmaceuticals, Inc., priority 2017, dated 2021):

Experiments:
wild type PKR [1] = target: T1, wild type PKR (Homo sapiens, UniProt P30613); experiment: PKR mutant assay (AC50), wild type PKR; format: biochemical; settings: wild type PKR enzyme; read-out: PKR WT AC50
Experimental: (§1) Example 11. PKR Mutant Assay
(§2) PKR or PKR mutant enzyme solution was diluted into a reaction mix, which contains 1× buffer (100 mM KCl, 50 mM Tris pH 7.5, 5 mM MgCl2) as well as PEP (cont depends on enzyme), 180 μM NADH, 0.5 units LDH, 1 mM DTT, 0.03% BSA; final assay concentrations after 1.11 fold dilution are indicated.
(§3) 2 μL of test compound was added into wells first, and then 180 μL reaction mix was added.
(§4) Reactions mixture with test compound was assembled except for ADP, and plates were stored for 60 minutes at room temperature.
(§5) 20 uL ADP was added to start reaction at room temperature and reaction progress was measured as changes in absorbance at 340 nm wavelength at room temperature.
(§6) Test Compound Preparation:
(§7) Test compound stock was made at 100× concentration in 100% DMSO (10 mM)
(§8) 1 to 3 dilutions were made for 11 points (i.e. 50 μl of first concentration added to 100 μl 100% DMSO to yield 3.33 mM, 50 μl of this added to 100 μl DMSO to yield 1.11 mM, and so forth) • 1 to 100 dilution into assay (2 μl in 200 μl) yielded starting concentration of 100 μM, decreasing 3 fold for 11 points.
(§9) Assay Buffer: 100 mM KCl, 50 mM Tris 7.5, 5 mM MgCl2, 1 ruM DTT, 0.03% BSA
(§10) Reaction Mixture: PKR mutant enzyme: 40-400 ng/well; ADP: 0.2-1.65 mM; PEP: 0.1-0.5 mM; NADH:180 μM; LDH: 0.5 units (Sigma #59023); DTT: 1 mM; BSA: 0.03%.

PKR K410E = PKR K410E (Homo sapiens, UniProt P30613, K410E); experiment: PKR mutant assay (AC50), PKR K410E; format: biochemical; settings: PKR K410E mutant enzyme
Experimental: as §1, §2, §3, §4, §5, §6, §7, §8, §9, §10

PKR R510Q = PKR R510Q (Homo sapiens, UniProt P30613, R510Q); experiment: PKR mutant assay (AC50), PKR R510Q; format: biochemical; settings: PKR R510Q mutant enzyme; read-out: PK R510Q AC50
Experimental: as §1, §2, §3, §4, §5, §6, §7, §8, §9, §10

wild type PKR [2] = target: T1, wild type PKR; experiment: Cell based ATP assay in purified red blood cells; set-up: endogenous in cells; host or cells: purified red blood cells from blood of healthy volunteers; settings: RBCs, overnight at 37° C., ATP levels by Cell-Titer-Glo
Experimental: Example 16. Red Blood Cell (RBC) Purification
Fresh blood drawn from healthy volunteers into K2EDTA tubes was collected. Whole blood was pelleted by spinning at 500 g for 10 minutes. Cut transfusion bag port off of Purecell leukocyte reduction neofilter (Fisher NCO267633) one (1) inch above filter. Attach a 10 ml syringe barrel to the remaining cut tubing attached to neofilter. The plasma layer was removed from the pellet of the whole blood and the pellet was resuspended in 2× volume of phosphate buffered saline (PBS). Transfer 9 ml re-suspended blood cell pellet to prepared 10 ml syringe that is attached to the neofilter. Allow whole blood to gravity flow through filter until all fluid runs through upper tubing into filter disc. Add plunger to the syringe, remove syringe from clamp and invert the filter, then plunge air through the syringe filter system. Using a new 5 ml syringe, remove filtered RBCs from the bag by the syringe port and transfer purified RBCs to a 5 ml snap cap tube that has been incubated on ice. Spin 5 ml snap cap tube at 500 g for 10 minutes at 15 C, aspirate supernatant and resuspend in AGAM (1×PBS, 1% glucose, 170 mg/L adenine, 5.25 g/L mannitol) at a density of 4×10^9 cells/mL.
Example 17. Cell Based ATP Assay
For cell based ATP assays, the compound as described herein was prepared in 100% DMSO as a 10 mM stock. Serial dilutions (1:4) were performed in 96-well V-bottom storage plate and then added 1:100 to 96-well V-bottom plates containing AGAM. RBCs were diluted in AGAM media to a density of 1×10^7 cells/mL before added 90 μL/well to black clear bottom assay plates (final compound concentration at 0.1% DMSO concentration). Assay plates were sealed using aluminum foil seals and incubated overnight at 37° C. in a humidified chamber. ATP levels were read out using Cell-Titer-Glo (Promega).

PKR R510Q, sequence (P30613 whole entry R510Q): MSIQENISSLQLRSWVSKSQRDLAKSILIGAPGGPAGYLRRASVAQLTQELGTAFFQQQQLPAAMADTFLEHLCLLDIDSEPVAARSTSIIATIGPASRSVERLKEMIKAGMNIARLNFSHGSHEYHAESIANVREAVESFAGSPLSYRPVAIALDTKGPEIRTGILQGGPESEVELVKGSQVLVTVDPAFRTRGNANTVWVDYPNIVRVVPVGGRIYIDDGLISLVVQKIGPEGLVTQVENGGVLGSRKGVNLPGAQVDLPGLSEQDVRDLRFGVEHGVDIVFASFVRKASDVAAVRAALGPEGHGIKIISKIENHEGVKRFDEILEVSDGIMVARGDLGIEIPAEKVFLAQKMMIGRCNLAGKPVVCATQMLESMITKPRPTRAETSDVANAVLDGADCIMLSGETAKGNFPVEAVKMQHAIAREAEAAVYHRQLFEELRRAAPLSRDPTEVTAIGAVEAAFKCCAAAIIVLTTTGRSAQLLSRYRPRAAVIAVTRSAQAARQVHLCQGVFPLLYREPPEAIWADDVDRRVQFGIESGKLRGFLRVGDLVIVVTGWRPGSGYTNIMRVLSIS
T1 sequence (P30613 whole entry): as the sequence (P30613 whole entry R510Q) above, with Q510R counted along it
PKR K410E, sequence (P30613 whole entry K410E): as the sequence (P30613 whole entry R510Q) above, with K410E, Q510R counted along it

Row | SMILES | AC50 (wild type PKR [1]) [nM] | AC50 (PKR K410E) [nM] | AC50 (PKR R510Q) [nM] | AC50 (wild type PKR [2]) [nM] | Cell based ATP assay AC50 (wild type PKR [2])
1 | Cn1c2nc(Cc3cc[nH]n3)sc2c2cnn(Cc3ncoc3Cl)c(=O)c21 | < 300 | < 300 | < 300 | ≤ 1000 | 
2 | Cn1c2nc(Cc3cc[nH]n3)sc2c2cnn(Cc3cc(=O)[nH][nH]3)c(=O)c21 | 301 to 800 | 301 to 800 | < 300 | > 1000 | 
3 | Cn1c2nc(Cc3cc[nH]n3)sc2c2cnn(Cc3cc(C(N)=O)[nH]n3)c(=O)c21 | 301 to 800 | 301 to 800 | > 800 | > 1000 | 
4 | Cn1c2nc(Cc3ncsc3Cl)sc2c2cnn(Cc3cc[nH]n3)c(=O)c21 | < 300 | < 300 | < 300 | ≤ 1000 | 
5 | Cn1c2nc(Cc3cc[nH]n3)sc2c2cnn(Cc3c[nH]cn3)c(=O)c21 | < 300 | < 300 | < 300 | ≤ 1000 | 
6 | Cn1c2nc(Cc3c[nH]cn3)sc2c2cnn(Cc3ncsc3C(F)(F)F)c(=O)c21 | > 800 | > 800 | > 800 | > 1000 | 
7 | Cn1c2nc(Cc3cc[nH]n3)sc2c2cnn(Cc3n[nH]cc3C(N)=O)c(=O)c21 | < 300 | < 300 | < 300 | ≤ 1000 | 
8 | Cc1ccc(Cn2ncc3c4sc(Cc5cc[nH]n5)nc4n(C)c3c2=O)nc1N | < 300 | < 300 | < 300 | ≤ 1000 | 
9 | Cn1c2nc(Cc3n[nH]cc3F)sc2c2cnn(Cc3ncsc3Cl)c(=O)c21 | < 300 | < 300 | < 300 | ≤ 1000 | 
10 | Cn1c2nc(Cc3ncsc3Cl)sc2c2cnn(Cc3c[nH]nn3)c(=O)c21 | < 300 | < 300 | < 300 | ≤ 1000 | 
11 | Cn1c2nc(Cc3n[nH]cc3F)sc2c2cnn(Cc3cscn3)c(=O)c21 | < 300 | < 300 | < 300 | ≤ 1000 | 
12 | Cn1cc(C(F)(F)F)c(Cn2ncc3c4sc(Cc5cc[nH]n5)nc4n(C)c3c2=O)n1 | < 300 | < 300 | < 300 | ≤ 1000 | 
13 | COc1sc(Br)nc1Cc1nc2c(s1)c1cnn(Cc3cc[nH]n3)c(=O)c1n2C | < 300 | < 300 | < 300 | ≤ 1000 | 
14 | Cn1c2nc(Cc3cc[nH]n3)sc2c2cnn(Cc3cnsc3)c(=O)c21 | < 300 | < 300 | < 300 | ≤ 1000 | 
15 | Cn1c2nc(Cc3cc[nH]n3)sc2c2cnn(Cc3ccc(C#N)cn3)c(=O)c21 | 301 to 800 | < 300 | < 300 | ≤ 1000 | 
16 | Cn1c2nc(Cc3ccccn3)sc2c2cnn(Cc3n[nH]cc3F)c(=O)c21 | < 300 | < 300 | < 300 | ≤ 1000 | 
17 | Cn1c2nc(Cc3cc[nH]n3)sc2c2cnn(Cc3ccncc3)c(=O)c21 | < 300 | < 300 | < 300 | ≤ 1000 | 
18 | Cn1c2nc(Cc3cc[nH]n3)sc2c2cnn(Cc3cccc(C#N)n3)c(=O)c21 | < 300 | < 300 | < 300 | ≤ 1000 | 
19 | Cn1c2nc(Cc3cc[nH]n3)sc2c2cnn(Cc3nc(C(N)=O)cs3)c(=O)c21 | < 300 | < 300 | < 300 | ≤ 1000 | 
20 | Cn1c2nc(Cc3cc[nH]n3)sc2c2cnn(Cc3c[nH]nn3)c(=O)c21 | < 300 | < 300 | < 300 | ≤ 1000 | 
21 | Cn1ccc(Cc2nc3c(s2)c2cnn(Cc4ccn[nH]4)c(=O)c2n3C)n1 | < 300 | < 300 | < 300 | ≤ 1000 | 

Row | SMILES | AC50 (wild type PKR [1]) [nM] | AC50 (PKR K410E) [nM] | AC50 (PKR R510Q) [nM] | AC50 (wild type PKR [2]) [nM] | Cell based ATP assay AC50 (wild type PKR [2])
22 | Cn1c2nc(Cc3cc[nH]n3)sc2c2cnn(Cc3nncs3)c(=O)c21 | < 300 | < 300 | < 300 | ≤ 1000 | 
23 | Cn1c2nc(Cc3c[nH]nn3)sc2c2cnn(Cc3cccc(N)n3)c(=O)c21 | < 300 | < 300 | < 300 | ≤ 1000 | 
24 | Cn1c2nc(Cc3cc[nH]n3)sc2c2cnn(Cc3nc[nH]c3N)c(=O)c21 | 301 to 800 | 301 to 800 | 301 to 800 | > 1000 | 
25 | Cn1c2nc(Cc3c[nH]nn3)sc2c2cnn(Cc3csc(N)n3)c(=O)c21 | < 300 | < 300 | < 300 | ≤ 1000 | 
26 | Cn1c2nc(Cn3cncn3)sc2c2cnn(Cc3ccnc(N)n3)c(=O)c21 | > 800 | > 800 | > 800 |  | No Fit
27 | Cn1c2nc(Cn3cncn3)sc2c2cnn(Cc3cc[nH]n3)c(=O)c21 | < 300 | < 300 | < 300 | ≤ 1000 | 
28 | Cn1c2nc(Cc3cc[nH]n3)sc2c2cnn(Cc3cc(Cl)[nH]n3)c(=O)c21 | < 300 | < 300 | < 300 | ≤ 1000 | 
29 | CC(=O)Nc1ccc(F)c(Cn2ncc3c4sc(Cc5cnn(C)c5)nc4n(C)c3c2=O)n1 | > 800 | > 800 | > 800 | > 1000 | 
30 | Cn1ccc(Cn2ncc3c4sc(Cc5ccccn5)nc4n(C)c3c2=O)n1 | < 300 | < 300 | < 300 | ≤ 1000 | 
31 | Cn1ccc(Cn2ncc3c4sc(Cc5n[nH]cc5F)nc4n(C)c3c2=O)n1 | < 300 | < 300 | < 300 | ≤ 1000 | 
32 | Cn1c2nc(Cc3n[nH]cc3F)sc2c2cnn(Cc3n[nH]cc3F)c(=O)c21 | < 300 | < 300 | < 300 | ≤ 1000 | 
33 | COc1ncccc1Cn1ncc2c3sc(Cc4cc[nH]n4)nc3n(C)c2c1=O | < 300 | < 300 | < 300 | ≤ 1000 | 
34 | Cn1c2nc(Cc3n[nH]cc3F)sc2c2cnn(Cc3n[nH]cc3C#N)c(=O)c21 | < 300 | < 300 | < 300 | ≤ 1000 | 
35 | Cn1c2nc(Cc3ccccn3)sc2c2cnn(Cc3nccs3)c(=O)c21 | < 300 | < 300 | < 300 | ≤ 1000 | 
36 | Cn1c2nc(Cc3ccccn3)sc2c2cnn(Cc3cccc(N)n3)c(=O)c21 | < 300 | < 300 | < 300 | ≤ 1000 | 
37 | Cn1c2nc(Cc3cc[nH]n3)sc2c2cnn(Cc3ccns3)c(=O)c21 | < 300 | < 300 | < 300 | ≤ 1000 | 
38 | Cn1c2nc(Cc3n[nH]cc3F)sc2c2cnn(Cc3c[nH]nn3)c(=O)c21 | < 300 | < 300 | < 300 | ≤ 1000 | 
39 | Cn1c2nc(Cc3cc[nH]n3)sc2c2cnn(Cc3n[nH]cc3C#N)c(=O)c21 | < 300 | < 300 | < 300 | ≤ 1000 | 
40 | Cn1c2nc(Cc3ncsc3Br)sc2c2cnn(Cc3cc[nH]n3)c(=O)c21 | < 300 | < 300 | < 300 | ≤ 1000 | 
41 | COc1scnc1Cn1ncc2c3sc(Cc4cc[nH]n4)nc3n(C)c2c1=O | < 300 | < 300 | < 300 | ≤ 1000 | 
42 | Cn1c2nc(Cc3cc[nH]n3)sc2c2cnn(Cc3cnc(N)o3)c(=O)c21 | < 300 | < 300 | 301 to 800 | ≤ 1000 | 
